Experimental data as given in US7022648B2, “Plant seeds treated with N,N′-substituted ureas” (Stoller Enterprises, Inc., priority 1996, dated 2006).

Tested on: Corn
Experiment: Preliminary greenhouse pot test, seeds soaked in diformylurea solution, root and shoot mass
Assay type: in vivo
Details: seed soak 24 h, 30 days
Protocol: In a preliminary experiment to determine the agricultural value of the N,N′-diformylurea prepared above, a concentrate was prepared by mixing 200 grams diformylurea and 200 grams formic acid, adjusting the ph to about 5.5 by the addition of potassium hydroxide and adding sufficient water to make 1 liter. […] Low, medium and high dilution aqueous solutions were prepared by diluting, respectively, 0.8 grams, 8.0 grams and 40.0 grams of the concentrate per liter of final solution. […] The foregoing solutions were used to coat corn, soybean, cotton and rice seeds prior to planting. Coating was achieved by soaking the seeds in the foregoing solutions for about 24 hours. Sufficient solution was used to keep the seeds immersed. Control seeds were soaked in water for the same time. Untreated or control seeds, together with seeds treated by the low, medium and high dilution solutions, were planted in 1 gallon greenhouse pots. Six pots were used for each dilution or control with five seeds planted per pot. The plants were thinned to two plants per pot after emergence. The plants were watered and fertilized as required. After 30 days the plants were harvested and the roots and shoots examined. The roots and shoots were weighed separately and the root/shoot ratio determined. The treated plants were generally characterized by both greater root mass and shoot mass when compared to the controls. The root/shoot ratio for most of the treated plants was greater than that for the controls.

O=CNC(=O)NC=O [diformylurea, N,N′-diformylurea]
crown roots on plants grown from treated seeds: crown roots were noticed
Root/Shoot Ratio (High dilution, 0.068 M): 1.09
Roots (gm) (High dilution, 0.068 M): 9.60 gm
Shoots (gm) (High dilution, 0.068 M): 8.80 gm
Total (gm) (High dilution, 0.068 M): 18.40 gm
Root/Shoot Ratio (Low dilution, 0.0013 M): 1.04
Roots (gm) (Low dilution, 0.0013 M): 9.80 gm
Shoots (gm) (Low dilution, 0.0013 M): 9.40 gm
Total (gm) (Low dilution, 0.0013 M): 19.20 gm
Root/Shoot Ratio (Medium dilution, 0.013 M): 1.08
Roots (gm) (Medium dilution, 0.013 M): 10.40 gm
Shoots (gm) (Medium dilution, 0.013 M): 9.60 gm
Total (gm) (Medium dilution, 0.013 M): 20.00 gm
